Test results: patent US20210401807A1, “NEW COMPOSITION COMPRISING AMORPHOUS NANOPOROUS SILICA PARTICLES” (VICORE PHARMA AB, priority 2018, published 2021)
Where a name gives a salt, the structure may show the parent alone.

Assay: Dissolution kinetics in simulated lung fluid (SLF), USP 2 dissolution apparatus
Assay type: physicochemical
Details: SLF pH 7.4, 37° C.
Protocol: The dissolution kinetics of the C21-loaded silica described in Example 5 were characterized in SLF (pH 7.4; Gamble's solution: made up with the salts NaCl, NaHCO3, KCl, MgCl2, CaCl2, Na2SO4, sodium citrate dihydrate, sodium acetate, NaH2PO4 (all from Sigma-Aldrich)) at 37° C. (Reference: Simulated Biological Fluids with Possible Application in Dissolution Testing, Marques et al,. Dissolution technologies August 2011, p15-28) using a USP 2 dissolution apparatus with stirring speed 75 rpm. Free, unloaded C21-sodium salt was used as control. Concentration of drug at set times after release was measured by a UV/vis spectrometer (Cecil 3021) at 267 nm.
The dose of C21 was calculated as 25 mg of C21 in 500 mL of SLF. […] The loaded C21 is fully released and dissolved from the silica particles in around 10 minutes.

solubility in SLF conditions: readily soluble | released in the first 2 minutes (75 rpm, 25 mg of C21 in 500 mL): 96%
Compound: CCCCOC(=O)NS(=O)(=O)c1sc(CC(C)C)cc1-c1ccc(Cn2ccnc2)cc1 [C21 sodium salt, N-butyloxycarbonyl-3-(4-imidazol-1-ylmethylphenyl)-5-iso-butylthio-phene-2-sulfonamide]
